Test results taken from patent US20170176470A1, “DETECTION OF CARBOXYALKYLPYRROLE OR PENTYLPYRROLE ETHANOLAMINE PHOSPHOLIPIDS” (CASE WESTERN RESERVE UNIVERSITY, priority 2015, published 2017).

How the values were obtained:
[1] = target: T1, recombinant mouse TLR2-Fc fusion protein (Mus musculus, UniProt Q9QUN7); experiment: Competitive binding of CEP-PE vs CEP-HSA to recombinant mouse TLR2-Fc protein (ELISA); settings: vesicles 0 to 125 μM; coated CEP-HSA; mTLR2-Fc 1 μg/ml
T1 construct: purchased R&D systems (Minneapolis, Minn.)
T1 sequence (Q9QUN7 with tags, fused parts or gaps limits assumed): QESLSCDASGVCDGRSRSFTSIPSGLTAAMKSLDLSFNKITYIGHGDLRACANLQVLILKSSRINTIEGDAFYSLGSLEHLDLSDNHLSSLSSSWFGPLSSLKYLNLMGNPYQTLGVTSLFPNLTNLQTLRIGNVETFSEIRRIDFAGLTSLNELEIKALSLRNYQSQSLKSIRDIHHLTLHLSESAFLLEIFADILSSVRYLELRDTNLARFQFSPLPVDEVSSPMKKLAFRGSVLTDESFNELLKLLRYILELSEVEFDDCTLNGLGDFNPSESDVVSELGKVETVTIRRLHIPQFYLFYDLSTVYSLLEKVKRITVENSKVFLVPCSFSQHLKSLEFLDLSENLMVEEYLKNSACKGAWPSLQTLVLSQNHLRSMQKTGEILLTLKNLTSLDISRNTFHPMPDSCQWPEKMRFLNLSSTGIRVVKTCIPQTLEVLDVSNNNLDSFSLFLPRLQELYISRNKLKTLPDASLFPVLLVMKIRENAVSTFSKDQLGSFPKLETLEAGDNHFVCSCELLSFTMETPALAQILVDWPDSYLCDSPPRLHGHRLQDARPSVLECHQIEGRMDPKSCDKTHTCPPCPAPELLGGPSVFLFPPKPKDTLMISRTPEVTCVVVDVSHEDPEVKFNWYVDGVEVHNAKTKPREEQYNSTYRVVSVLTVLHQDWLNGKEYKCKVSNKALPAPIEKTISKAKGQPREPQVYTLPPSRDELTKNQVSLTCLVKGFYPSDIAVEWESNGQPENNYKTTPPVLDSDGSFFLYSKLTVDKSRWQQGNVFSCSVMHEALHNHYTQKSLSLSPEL
Protocol: Small unilamellar vesicles of CEP-DPPE (125 μM) in phosphate buffered saline (PBS) were prepared by extruding (20 times) the hydrated phospholipids through a 0.1 μm polycarbonate filter using an Avanti Mini-Extruder (Avanti Polar Lipids, Inc., Alabaster, Ala.). The resulting solution was diluted to various concentrations by addition of PBS. To a 96-well ELISA plate, 100 μl of 5 μM CEP in CEP-HSA protein in PBS solution was added into each well and the plate was incubated at 37° C. for 1 h. PBS (100 μl) was used as control. Then the wells were washed with PBS and the non-binding sites on wells were blocked with 350 μL of 4% bovine serum albumin (BSA) in PBS buffer for 1 h at 37° C. blocking was completed, a mixture of recombine-ant mouse TLR2-Fc protein at a fixed concentration (1 μg/ml, in 1% BSA-PBS) with an equal volume of CEP-PE vesicles at concentrations from 0 to 125 μM was added to each well, and the plate was allowed to incubate for 1 h at 37° C. DPPE vesicle solutions at 0, 50, 75 and 120 μM concentration, prepared by sonication, were used as parallel samples. After washing the plate with PBS containing 0.1% Tween-20 (PBST) buffer, 100 μL of 1:2,000 diluted goat anti-human Fc antibody in PBST buffer was added to each well. […] After an additional 30 min incubation, the absorbance for each well was read at 405 nm with a microplate reader (Bio-Rad, Hercules, Calif.).

[2] = tested on: HUVECs; experiment: HUVEC tube formation assay; type: cell-based, human
Protocol: For comparing the ability of various CEP-derivatives to promote tube formation (FIG. 2A) HUVECs were seeded on Matrigel-coated 48 well plates (BD Bioscience). The DMEM-F12 medium (Media lab, Cleveland Clinic, Cleveland, Ohio) was supplemented with various CEP-derivatives as indicated and incubated with cultured HUVECs at 37° C. for 8 h. Tube formation by HUVECs was observed using a phase contrast inverted microscope. Two independent assays were performed by two operators, one used PBS as control and the other used DPPE vesicles as control. The data were quantified either by measuring the length of tubes or by the number of branches. For testing the effects of oxPAPC, a TLR2 inhibitor, (FIG. 2C) or TLR2 knockdown (FIG. 2D) on the ability of CEP-PE to promote tube formation, growth factor-reduced (GFR) basement membrane extract (Cultrex BME, Trevigen, Gaithersburg, Md.; 175 μl/well) was added to the wells of an ice-cold 48-well plate and then incubated at 37° C. for 1 h to allow the gel to solidify. Overnight-starved, trypsin detached and extensively washed HUVECs (2.5×10^4 cells/well; Promocell, GmbH, Heidelberg, Germany) in a basal Growth Medium 2 (GM2; Promocell, GmbH) were seeded onto the BME coated wells. […] They were further thoroughly washed three times with GM2 basal medium, counted and seeded onto BME coated wells. […]

[3] = tested on: PLD from Streptomyces chromofuscus; experiment: PLD-catalyzed hydrolysis of pyrrole-modified PEs, monitored by LC-MS; type: biochemical
Protocol: The isolated lipids were hydrolyzed with PLD (Streptomyces chromofuscus) by a modification of the method described previously for hydrolysis of isolevuglandin modified PEs. Lipids were re-suspended in 50 μL of methanol. Then 450 μL of HBSS buffer (Thermo Scientific, Waltham, Mass.) supplemented with 5 mM CaCl2 and 0.1 mM EDTA was added. The mixture was incubated at 37° C. for 30 min, and then was sonicated for 10 min. The cloudy lipid mixture was passed through a 0.1 μm polycarbonate filter (20 times) for extrusion using an Avanti Mini- Extruder Set (Avanti Polar Lipids, Inc., Alabaster, Ala.) to generate a homogeneous unilammelar lipid vesicle solution. Then 280 units of PLD (Streptomyces chromofuscus) were added to each sample. The mixture was incubated under argon with gentle shaking at 37° C. overnight. The next day the samples were evaporated to dryness under a stream of nitrogen for 2 h. […]
To verify CEP-PEs are substrates of PLD, CEP-DPPE and d4-CEP-PE standards were treated with PLD from Streptomyces chromofuscus. Then the generation of CEP-ETN and d4-CEPETN was monitored by LC-MS/MS, respectively. […]
Total phospholipids isolated from biological samples by a modified Bligh & Dyer method, were prepared for phospholipolysis by conversion into small unilamellar vesicles (SUVs) by extrusion. […] The resulting product mixture was then analyzed by injection into the LC-MS/MS. […]

| Compound | competition with CEP-HSA in binding with mTLR2-Fc protein [1] | ability to induce tube formation by HUVECs after knockdown of TLR2 by TLR2 siRNA ([2]; HUVECs with transient TLR2 knockdown, 1-500 nM CEP-DPPE, 12 h) | tube formation by HUVECs ([2]; cultured HUVECs on Matrigel, 8 h, 0.5 μM CEP-DPPE, PBS or DPPE as negative control) | release of CEP-ETN by PLD ([3]; control experiment, incubation for 1 h (data not shown)) | hydrolysis by PLD (Streptomyces chromofuscus) to the modified ethanolamine ([3]; standards treated with PLD, LC-MS/MS or LC-MS) |
| --- | --- | --- | --- | --- | --- |
| CCCCCCCCCCCCCCCC(=O)OC[C@H](COP(=O)(O)OCCN)OC(=O)CCCCCCCCCCCCCCC [DPPE, 1,2-Dipalmitoyl-sn-glycero-3-phosphoethanolamine, reference compound] | does not inhibit |  |  |  |  |
| CEP derivative of 1,2-dipalmitoyl-sn-glycero-3-phosphoethanolamine [CEP-DPPE] | compete with CEP-HSA | abolished | induces tube formation | quantitative release | readily hydrolyzed |
